The target in the assay is T1, isolated pulmonary artery of the guinea pig (Cavia porcellus, UniProt O70526).
T1 sequence (O70526 1-372): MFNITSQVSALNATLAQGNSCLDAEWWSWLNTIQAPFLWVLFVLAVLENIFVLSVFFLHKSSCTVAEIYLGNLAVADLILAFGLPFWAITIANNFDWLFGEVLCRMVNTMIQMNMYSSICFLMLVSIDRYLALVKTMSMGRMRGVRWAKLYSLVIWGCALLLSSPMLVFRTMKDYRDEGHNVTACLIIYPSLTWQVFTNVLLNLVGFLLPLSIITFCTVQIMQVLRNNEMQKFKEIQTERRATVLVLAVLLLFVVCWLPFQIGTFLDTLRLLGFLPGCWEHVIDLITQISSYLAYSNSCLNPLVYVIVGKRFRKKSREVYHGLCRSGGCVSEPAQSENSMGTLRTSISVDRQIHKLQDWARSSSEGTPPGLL
The experiment in a line: bradykinin antagonist action on the isolated arteria pulmonalis of the guinea pig (decrease of bradykinin-induced contraction). The procedure: For testing the peptides according to the invention on the isolated arteria pulmonalis, guinea pigs (Dunkin Hartley) having a weight of 400-450 g are sacrificed by a blow to the back of the neck.
The thorax is opened and the arteria pulmonalis is carefully dissected out. The surrounding tissue is carefully removed and the arteria pulmonalis is cut spirally at an angle of 45°.
The vessel strip of 2.5 cm length and 3-4 mm width is fixed in a 10 ml capacity organ bath which is filled with Ringer solution.
95% O2 and 5% CO2 is bubbled through the solution, which is warmed to 37° C. The pH is 7.4 and the preload on the vessel strip is 1.0 g.
The isotonic contraction changes are detected using a lever arrangement and an HF modem (position sensor) from Hugo Sachs and recorded on a compensating recorder (BEC, Goerz Metrawatt SE 460).
After equilibration for 1 hour, the experiment is begun.
For the detection of a partial agonistic effect, the peptides are used in the doses 1×10^-5 -1×10^-3 mol/l.

Setting [1] is: Table 1, vessel strip contracted with 2×10^-7 mol/l of bradykinin, peptides act 10 minutes, calculated from dose-effect curves.

Structures are written as SMILES. Where a SMILES comes first, the peptide text is derived from it. [ ]: non-standard residue; d: D form. Oic = O=C(O)[C@@H]1C[C@@H]2CCCC[C@@H]2N1; Hyp = O=C(O)[C@@H]1C[C@@H](O)CN1; dTic = O=C(O)[C@H]1Cc2ccccc2CN1

Broadly, the IC50 is the concentration needed to halve the response being measured. Regarding `N=C(N)NCCC[C@@H](N)C(=O)N[C@@H](CCCNC(=N)N)C(=O)N1CCC[C@H]1C(=O)N1C[C@H](O)C[C@H]1C(=O)NCC(=O)N[C@@H](Cc1cccs1)C(=O)N[C@@H](CO)C(=O)N1Cc2ccccc2C[C@@H]1C(=O)N1[C@H](C(=O)N[C@@H](CCCNC(=N)N)C(=O)O)C[C@@H]2CCCC[C@@H]21` [Example 59, H-(D)-Arg-Arg-Pro-Hyp-Gly-Thia-Ser-(D)-Tic-Oic-Arg-OH], half-maximal inhibition (table by Example No., test not named there, values coincide with Table 1) (IC50) required 0.0054 µM. In the case of `CC(C)C[C@H](NC(=O)CNC(=O)[C@@H]1C[C@@H](O)CN1C(=O)[C@@H]1CCCN1C(=O)[C@H](CCCNC(=N)N)NC(=O)[C@H](N)CCCNC(=N)N)C(=O)N[C@@H](CO)C(=O)N1Cc2ccccc2C[C@@H]1C(=O)N1[C@H](C(=O)N[C@@H](CCCNC(=N)N)C(=O)O)C[C@@H]2CCCC[C@@H]21` [Example 199, H-(D)-Arg-Arg-Pro-Hyp-Gly-Leu-Ser-(D)-Tic-Oic-Arg-OH] (H-[dR]RP[Hyp]GLS[dTic][Oic]R-OH), the 50% inhibitory concentration (IC50) under setting [1] was 0.0059 µM.

For `N=C(N)NCCC[C@@H](N)C(=O)N[C@@H](CCCNC(=N)N)C(=O)N1CCC[C@H]1C(=O)N1C[C@H](O)C[C@H]1C(=O)NCC(=O)N[C@@H](CC1CCCCC1)C(=O)N[C@@H](CO)C(=O)N1Cc2ccccc2C[C@@H]1C(=O)N1[C@H](C(=O)N[C@@H](CCCNC(=N)N)C(=O)O)C[C@@H]2CCCC[C@@H]21` [Example 200, H-(D)-Arg-Arg-Pro-Hyp-Gly-Cha-Ser-(D)-Tic-Oic-Arg-OH], under setting [1], the IC50 is 0.037 µM. Same read-out and setting: in the case of `CC(C)(C)[C@H](NC(=O)CNC(=O)[C@@H]1C[C@@H](O)CN1C(=O)[C@@H]1CCCN1C(=O)[C@H](CCCNC(=N)N)NC(=O)[C@H](N)CCCNC(=N)N)C(=O)N[C@@H](CO)C(=O)N1Cc2ccccc2C[C@@H]1C(=O)N1[C@H](C(=O)N[C@@H](CCCNC(=N)N)C(=O)O)C[C@@H]2CCCC[C@@H]21` [Example 201, H-(D)-Arg-Arg-Pro-Hyp-Gly-Tbg-Ser-(D)-Tic-Oic-Arg-OH] it was 6 µM.

Source of the values: patent US5648333A, “Peptides having bradykinin antagonist action” (Hoechst Aktiengesellschaft, priority 1988, dated 1997).
